Measured values reported in ChEMBL document CHEMBL4742385 (2019).
“And” between values parts separate entries of the source, which are not always exact repeats. Equal entries are not always repeated.

How the values were obtained:
[1] = target: CDK8/Cyclin C (Homo sapiens) (UniProt P49336+P24863); test: Inhibition of human CDK8/Cyc C expressed in Sf21 cells at 1 uM measured after 1 hr by fluorescence plate reader relative to control
RPMI-8226 = test: Antiproliferative activity against human RPMI-8226 assessed as inhibition of cell growth at 1 uM after 8 days measured after Celltiter-Glo assay relative to control; assay type: functional; settings: time 8 day; for inhibition at 1 µM: Homo sapiens, RPMI-8226, 192 h
[2] = target: Cyclin-C/Cyclin-dependent kinase 19 (Homo sapiens) (UniProt Q9BWU1+P24863); test: Inhibition of humanGST-tagged CDK19/Cyc C expressed in Sf21 cells at 1 uM measured after 1 hr by fluorescence plate reader relative to control

SMILES: O=C(/C=C/c1cnccc1-c1cnn(C2CC2)c1)Nc1ccc2c(c1)CN(CC(F)(F)CO)C2
- inhibition [1]: 102%
- inhibition at 1 µM (RPMI-8226): 65%
- inhibition [2]: 96%

SMILES: Cn1cc(-c2ccncc2/C=C/C(=O)Nc2ccc(CCC(F)(F)F)cc2)cn1
- inhibition [1]: 98%
- inhibition at 1 µM (RPMI-8226): 53%
- inhibition [2]: 99%

SMILES: CN(C)CCOc1ccc(NC(=O)/C=C/c2cnccc2-c2cnn(C)c2)cc1
- inhibition [1]: 99%
- inhibition at 1 µM (RPMI-8226): 60%
- inhibition [2]: 93%

SMILES: Cn1cc(-c2ccncc2/C=C/C(=O)Nc2ccc(N3CCOCC3)c(Cl)c2)cn1
- inhibition [1]: 102%
- inhibition at 1 µM (RPMI-8226): 60%
- inhibition [2]: 100%

SMILES: O=C(/C=C/c1cnccc1-c1cccs1)Nc1ccc(CCc2nnco2)cc1
- inhibition [1]: 101%
- inhibition at 1 µM (RPMI-8226): 59%
- inhibition [2]: 100%

SMILES: Cn1cc(-c2ccncc2/C=C/C(=O)Nc2ccc(CNC3CC(F)(F)C3)cc2)cn1
- inhibition [1]: 96%
- inhibition at 1 µM (RPMI-8226): 63%
- inhibition [2]: 97%

SMILES: Cc1cc(NC(=O)/C=C/c2cnccc2-c2cnn(C3CC3)c2)ccc1CN1CCOCC1
- inhibition [1]: 98%
- inhibition at 1 µM (RPMI-8226): 62%
- inhibition [2]: 99%

SMILES: Cn1cc(-c2ccncc2/C=C/C(=O)Nc2ccc3c(c2)CCC3=O)cn1
- inhibition [1]: 92%
- inhibition at 1 µM (RPMI-8226): 54%
- inhibition [2]: 87%

SMILES: O=C(/C=C/c1cnccc1-c1cnn(C2CC2)c1)Nc1ccc2c(c1)CCN(CC(F)(F)F)C2
- inhibition [1]: 103%
- inhibition at 1 µM (RPMI-8226): 49%
- inhibition [2]: 98%

SMILES: Cn1cc(-c2ccncc2/C=C/C(=O)Nc2ccc(CC#N)cc2)cn1
- inhibition [1]: 92%
- inhibition at 1 µM (RPMI-8226): 57%
- inhibition [2]: 95%

SMILES: Cn1cc(-c2ccncc2/C=C/C(=O)Nc2ccc3c(c2)CCCC3=O)cn1
- inhibition [1]: 96%
- inhibition at 1 µM (RPMI-8226): 56%
- inhibition [2]: 92%

SMILES: Cn1cnc2ccc(-c3ccncc3/C=C/C(=O)Nc3ccc4c(ccn4CC(F)(F)F)c3)cc21
- inhibition [1]: 85%
- inhibition at 1 µM (RPMI-8226): 63%
- inhibition [2]: 84%

SMILES: O=C(/C=C/c1cnccc1-c1cnn(C2CC2)c1)Nc1ccc(CN2CC(F)(F)C2)cc1.O=S(=O)(O)O
- inhibition (INH) (RPMI-8226): 70%

SMILES: Cn1cc(-c2ccncc2/C=C/C(=O)Nc2ccc(CN3CC(F)(F)C3)cc2)cn1
- inhibition [1]: 99%
- inhibition at 1 µM (RPMI-8226): 48%
- inhibition [2]: 99%

SMILES: Cn1cc2cc(-c3ccncc3/C=C/C(=O)Nc3ccc(CN4CCOCC4)cc3)ccc2n1
- inhibition [1]: 97%
- inhibition at 1 µM (RPMI-8226): 52%
- inhibition [2]: 93%

SMILES: O=C(/C=C/c1cnccc1-c1ccc2[nH]ncc2c1)Nc1ccc(CN2CCOCC2)cc1
- inhibition [1]: 96%
- inhibition at 1 µM (RPMI-8226): 55%
- inhibition [2]: 97%

SMILES: O=C(/C=C/c1cnccc1-c1cnn(C2CCC2)c1)Nc1ccc(CN2CCOCC2)cc1
- inhibition [1]: 96%
- inhibition at 1 µM (RPMI-8226): 54%
- inhibition [2]: 96%

SMILES: CCN1CCc2ccc(NC(=O)/C=C/c3cnccc3-c3cnn(C)c3)cc2C1
- inhibition [1]: 99%
- inhibition at 1 µM (RPMI-8226): 56%
- inhibition [2]: 95%

SMILES: CC(C)(F)Cc1ccc(NC(=O)/C=C/c2cnccc2-c2cnn(C3CC3)c2)cc1
- inhibition [1]: 102%
- inhibition at 1 µM (RPMI-8226): 61%
- inhibition [2]: 95%

SMILES: O=C(/C=C/c1cnccc1-c1cnn(C2CC2)c1)Nc1ccc2c(c1)CN(CC(F)(F)C(F)(F)F)CC2
- inhibition [1]: 97%
- inhibition at 1 µM (RPMI-8226): 57%
- inhibition [2]: 94%

SMILES: O=C(/C=C/c1cnccc1-c1ccc2ncn(CC3CC3)c2c1)Nc1ccc(CN2CCOCC2)cc1
- inhibition [1]: 95%
- inhibition at 1 µM (RPMI-8226): 60%
- inhibition [2]: 96%

SMILES: Cn1cc(-c2ccncc2/C=C/C(=O)Nc2ccc(Cn3cccn3)cc2)cn1
- inhibition [1]: 102%
- inhibition at 1 µM (RPMI-8226): 53%
- inhibition [2]: 97%

SMILES: Cn1cc(-c2ccncc2/C=C/C(=O)Nc2ccc(CN3CCCC3CO)cc2)cn1 (centres undefined)
- inhibition [1]: 104%
- inhibition at 1 µM (RPMI-8226): 52%
- inhibition [2]: 93%

SMILES: COC(C)(C)Cc1ccc(NC(=O)/C=C/c2cnccc2-c2cnn(C3CC3)c2)cc1
- inhibition [1]: 101%
- inhibition at 1 µM (RPMI-8226): 67%
- inhibition [2]: 94%

SMILES: O=C(/C=C/c1cncc(F)c1-c1cnn(C2CC2)c1)Nc1ccc(CN2CC3CC(C2)O3)cc1
- inhibition [1]: 102%
- inhibition at 1 µM (RPMI-8226): 59%
- inhibition [2]: 101%

SMILES: O=C(/C=C/c1cnccc1-c1cnn(C2CC2)c1)Nc1ccc(CN2CC(F)(F)C2)cc1.O=P(O)(O)O.O=P(O)(O)O
- inhibition (INH) (RPMI-8226): 69%

SMILES: O=C(/C=C/c1cnccc1-c1cnn(C2CC2)c1)Nc1ccc(CN2CC3(COC3)C2)cc1
- inhibition [1]: 110%
- inhibition at 1 µM (RPMI-8226): 56%
- inhibition [2]: 98%

SMILES: Cn1cc(-c2ccncc2/C=C/C(=O)Nc2ccc3c(c2)CCN(CC(F)(F)F)C3)cn1
- inhibition [1]: 98%
- inhibition at 1 µM (RPMI-8226): 65%
- inhibition [2]: 101%

SMILES: COCCOc1ccc(NC(=O)/C=C/c2cnccc2-c2cnn(C)c2)cc1
- inhibition [1]: 98%
- inhibition at 1 µM (RPMI-8226): 62%
- inhibition [2]: 97%

SMILES: COCCn1cnc2ccc(-c3ccncc3/C=C/C(=O)Nc3ccc(CN4CCOCC4)cc3)cc21
- inhibition [1]: 103%
- inhibition at 1 µM (RPMI-8226): 62%
- inhibition [2]: 97%

SMILES: Cn1cc(-c2ccncc2/C=C/C(=O)Nc2ccc(CN3CCOCC3)c(Cl)c2)cn1
- inhibition [1]: 99%
- inhibition at 1 µM (RPMI-8226): 53%
- inhibition [2]: 99%

SMILES: Cn1cc(-c2ccncc2/C=C/C(=O)Nc2ccc(CN3CCOCC3)c(F)c2)cn1
- inhibition [1]: 99%
- inhibition at 1 µM (RPMI-8226): 62%
- inhibition [2]: 97%

SMILES: Cn1cc(-c2ccncc2/C=C/C(=O)Nc2ccc(CN3CCOC(C)(C)C3)cc2)cn1
- inhibition [1]: 97%
- inhibition at 1 µM (RPMI-8226): 61%
- inhibition [2]: 101%

SMILES: O=C(/C=C/c1cnccc1-c1cnn(C2CC2)c1)Nc1ccc(CN2CC(F)(F)C2)cc1F
- inhibition [1]: 105%
- inhibition at 1 µM (RPMI-8226): 51%
- inhibition [2]: 74%

SMILES: CS(=O)(=O)O.O=C(/C=C/c1cnccc1-c1cnn(C2CC2)c1)Nc1ccc(CN2CC(F)(F)C2)cc1
- inhibition (INH) (RPMI-8226): 70%

SMILES: Cn1cc(-c2ccncc2/C=C/C(=O)Nc2ccc(CN3CCC(F)(F)C3)cc2)cn1
- inhibition [1]: 99%
- inhibition at 1 µM (RPMI-8226): 62%
- inhibition [2]: 100%

SMILES: CCn1cc(-c2ccncc2/C=C/C(=O)Nc2ccc(CN3CCOCC3)cc2)cn1
- inhibition [1]: 96%
- inhibition at 1 µM (RPMI-8226): 63%
- inhibition [2]: 100%

SMILES: Cn1cc(-c2ccncc2/C=C/C(=O)Nc2ccc(CN3CC4CCC(C3)O4)cc2)cn1
- inhibition [1]: 96%
- inhibition at 1 µM (RPMI-8226): 61%
- inhibition [2]: 97%

SMILES: O=C(/C=C/c1cncc(F)c1-c1cnn(C2CC2)c1)Nc1ccc2c(c1)OCCO2
- inhibition [1]: 103%
- inhibition at 1 µM (RPMI-8226): 65%
- inhibition [2]: 98%

SMILES: O=C(/C=C/c1cnccc1-c1cnn(C2CC2)c1)Nc1ccc(COC(F)F)cc1
- inhibition [1]: 97%
- inhibition at 1 µM (RPMI-8226): 52%
- inhibition [2]: 93%

SMILES: O=C(/C=C/c1cnccc1-c1cnn(C2CC2)c1)Nc1ccc(CN2CC(F)C2)cc1
- inhibition [1]: 107%
- inhibition at 1 µM (RPMI-8226): 58%
- inhibition [2]: 99%

SMILES: Cn1cc(-c2ccncc2/C=C/C(=O)Nc2ccc3cnccc3c2)cn1
- inhibition [1]: 96%
- inhibition at 1 µM (RPMI-8226): 62%
- inhibition [2]: 99%

SMILES: O=C(/C=C/c1cnccc1-c1cnn(C2CC2)c1)Nc1ccc(COCC(F)(F)F)cc1F
- inhibition [1]: 101%
- inhibition at 1 µM (RPMI-8226): 53%
- inhibition [2]: 96%

SMILES: O=C(/C=C/c1cnccc1-c1cn[nH]c1)Nc1ccc(CN2CCOCC2)cc1
- inhibition [1]: 100%
- inhibition at 1 µM (RPMI-8226): 61%
- inhibition [2]: 99%

SMILES: Cn1cc(-c2ccncc2/C=C/C(=O)Nc2ccc3c(c2)CCO3)cn1
- inhibition [1]: 96%
- inhibition at 1 µM (RPMI-8226): 55%
- inhibition [2]: 95%

SMILES: CC1CN(Cc2ccc(NC(=O)/C=C/c3cnccc3-c3cnn(C4CC4)c3)cc2)C1
- inhibition [1]: 102%
- inhibition at 1 µM (RPMI-8226): 55%
- inhibition [2]: 97%

SMILES: Cn1cc(-c2c(F)cncc2/C=C/C(=O)Nc2ccc3c(c2)CN(CC(C)(F)F)C3)cn1
- inhibition [1]: 106%
- inhibition at 1 µM (RPMI-8226): 63%
- inhibition [2]: 100%

SMILES: CC1COCCN1Cc1ccc(NC(=O)/C=C/c2cnccc2-c2cnn(C)c2)cc1 (centres undefined)
- inhibition [1]: 100%
- inhibition at 1 µM (RPMI-8226): 55%
- inhibition [2]: 95%

SMILES: O=C(/C=C/c1cnccc1-c1cnn(Cc2ccccn2)c1)Nc1ccc(CN2CCOCC2)cc1
- inhibition [1]: 101%
- inhibition at 1 µM (RPMI-8226): 57%
- inhibition [2]: 98%

SMILES: C[C@@H]1CN(Cc2ccc(NC(=O)/C=C/c3cnccc3-c3cnn(C)c3)cc2)C[C@H](C)O1
- inhibition [1]: 101%
- inhibition at 1 µM (RPMI-8226): 58%
- inhibition [2]: 97%

SMILES: Cn1cc(-c2c(F)cncc2/C=C/C(=O)Nc2ccc(CN3CCOCC3)cc2F)cn1
- inhibition [1]: 98%
- inhibition at 1 µM (RPMI-8226): 53%
- inhibition [2]: 99%

SMILES: O=C(/C=C/c1cnccc1-c1cncs1)Nc1ccc(CN2CCOCC2)cc1
- inhibition [1]: 94%
- inhibition at 1 µM (RPMI-8226): 52%
- inhibition [2]: 97%

SMILES: Cc1ccc(NC(=O)/C=C/c2cnccc2-c2cn[nH]c2)c(F)c1
- inhibition [1]: 100%
- inhibition at 1 µM (RPMI-8226): 59%
- inhibition [2]: 97%

SMILES: O=C(/C=C/c1cnccc1-c1cnn(CC2CC2)c1)Nc1ccc(CN2CCOCC2)cc1
- inhibition [1]: 98%
- inhibition at 1 µM (RPMI-8226): 55%
- inhibition [2]: 99%

SMILES: Cn1cc(-c2ccncc2/C=C/C(=O)Nc2ccc3c(c2)CN(CC(F)F)C3)cn1
- inhibition [1]: 105%
- inhibition at 1 µM (RPMI-8226): 63%
- inhibition [2]: 94%

SMILES: Cn1cc(-c2c(F)cncc2/C=C/C(=O)Nc2ccc(CN3CCOCC3)cc2)cn1
- inhibition [1]: 100%
- inhibition at 1 µM (RPMI-8226): 67%
- inhibition [2]: 100%

SMILES: CC(=O)n1cc(-c2ccncc2/C=C/C(=O)Nc2ccc(CN3CCOCC3)cc2)cn1
- inhibition [1]: 96%
- inhibition at 1 µM (RPMI-8226): 65%
- inhibition [2]: 101%

SMILES: O=C(/C=C/c1cnccc1-c1cnn(C2CC2)c1)Nc1ccc(CN2CC(F)(F)C2)cc1.O=C(O)/C=C/C(=O)O
- inhibition (INH) (RPMI-8226): 70%

SMILES: O=C(/C=C/c1cnccc1-c1cnn(C2CC2)c1)Nc1ccc(CN2CC(F)(F)C2)cc1.O=C(O)CCC(=O)O
- inhibition (INH) (RPMI-8226): 66%

SMILES: O=C(/C=C/c1cnccc1-c1cnn(C2CC2)c1)Nc1ccc(CN2CC(F)(F)C2)cc1
- inhibition [1]: 102% [middle of 6 runs]
- inhibition [2]: 101% (3×) and 100% (3×)
